Data as given in patent US20240270821A1, “GIP/GLP1/GCG TRI-RECEPTOR AGONISTS AND USES THEREOF” (priority 2023, published 2024).
Like-named read-outs stand apart in the source and are kept apart here. Starred links: 1 amine or outer side, 2 acyl side, 3 side chain; linkers in the order of their positions; H or OH if unused. Non-standard residues stand in square brackets, D forms with d. Groups on a side chain read outwards from the residue. *: point of attachment. C18 diacid = O=C(O)CCCCCCCCCCCCCCCCC(=O)*; αMePhe(2-F) = C[C@](N)(Cc1ccccc1F)C(=O)O; γGlu = O=C(O)[C@H](CCC(=O)[*:2])N[*:1]; αMe4Pal = C[C@](N)(Cc1ccncc1)C(=O)O; αMeY = C[C@](N)(Cc1ccc(O)cc1)C(=O)O; 4Pal = N[C@@H](Cc1ccncc1)C(=O)O; αMeL = CC(C)C[C@](C)(N)C(=O)O; αMeS = C[C@](N)(CO)C(=O)O; Orn = NCCC[C@H](N)C(=O)O; AEEA = NCCOCCOCC(=O)O; Aib = CC(C)(N)C(=O)O

Legend:
hGIPR [1] = target: T1, hGIPR (Homo sapiens, UniProt P48546); test: Functional cAMP activity in the presence of 1% HSA; type: cell-based; conditions: read-out: cAMP Rel EC50, hGIPR
T1 sequence (P48546 22-466): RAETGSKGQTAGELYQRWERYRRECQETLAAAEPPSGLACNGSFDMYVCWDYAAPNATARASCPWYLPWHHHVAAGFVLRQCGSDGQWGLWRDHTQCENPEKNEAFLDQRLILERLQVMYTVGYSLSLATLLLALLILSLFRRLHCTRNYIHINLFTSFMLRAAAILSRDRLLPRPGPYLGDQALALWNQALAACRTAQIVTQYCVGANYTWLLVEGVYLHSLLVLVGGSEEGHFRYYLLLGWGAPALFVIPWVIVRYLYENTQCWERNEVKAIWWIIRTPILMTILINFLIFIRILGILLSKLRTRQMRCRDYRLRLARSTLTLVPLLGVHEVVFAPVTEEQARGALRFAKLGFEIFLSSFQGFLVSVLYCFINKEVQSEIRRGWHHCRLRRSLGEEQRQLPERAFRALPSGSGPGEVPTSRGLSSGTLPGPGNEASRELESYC

hGLP-1R [2] = target: T2, hGLP-1R (Homo sapiens, UniProt P43220); test: Functional cAMP activity in the presence of 1% HSA; type: cell-based; conditions: read-out: cAMP Rel EC50, hGLP-1R
T2 sequence (P43220 24-463): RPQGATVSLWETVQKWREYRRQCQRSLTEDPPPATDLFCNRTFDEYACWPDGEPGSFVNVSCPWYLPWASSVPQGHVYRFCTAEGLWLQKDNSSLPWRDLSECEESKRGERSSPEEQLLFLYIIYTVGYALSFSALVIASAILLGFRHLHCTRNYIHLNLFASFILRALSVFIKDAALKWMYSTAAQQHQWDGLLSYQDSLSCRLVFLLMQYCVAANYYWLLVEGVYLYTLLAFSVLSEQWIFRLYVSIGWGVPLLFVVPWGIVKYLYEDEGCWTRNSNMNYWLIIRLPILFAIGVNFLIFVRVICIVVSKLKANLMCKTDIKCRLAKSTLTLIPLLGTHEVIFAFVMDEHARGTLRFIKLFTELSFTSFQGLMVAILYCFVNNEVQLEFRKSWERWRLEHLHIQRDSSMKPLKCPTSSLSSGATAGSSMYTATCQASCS

human GcgR = human GcgR (Homo sapiens, UniProt P47871); test: Functional cAMP activity in the presence of 1% HSA; type: cell-based; conditions: read-out: cAMP Rel EC50, hGcgR
human GcgR, sequence (P47871 26-477): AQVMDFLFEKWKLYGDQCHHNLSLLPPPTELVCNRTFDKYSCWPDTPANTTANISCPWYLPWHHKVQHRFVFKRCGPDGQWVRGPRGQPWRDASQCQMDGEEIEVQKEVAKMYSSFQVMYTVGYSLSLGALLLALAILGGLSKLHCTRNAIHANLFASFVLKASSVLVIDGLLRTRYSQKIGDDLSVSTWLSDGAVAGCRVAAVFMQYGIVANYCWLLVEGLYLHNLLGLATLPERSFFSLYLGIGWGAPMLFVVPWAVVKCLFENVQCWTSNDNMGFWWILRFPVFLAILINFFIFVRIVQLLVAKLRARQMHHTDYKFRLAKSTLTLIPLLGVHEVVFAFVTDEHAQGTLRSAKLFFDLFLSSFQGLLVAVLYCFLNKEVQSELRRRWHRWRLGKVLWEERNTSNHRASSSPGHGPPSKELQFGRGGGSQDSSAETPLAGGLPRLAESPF

hGIPR [3] = target: T1, hGIPR; test: Functional cAMP activation in the presence of 0.1% casein (no HSA); type: cell-based; conditions: read-out: Relative cAMP EC50, hGIPR;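 as to Relative cAMP EC50, hGIPR: intracellular cAMP rise after 30 min at 37 °C read by HTRF against a standard curve, scaled between buffer alone (0%) and top control ligand concentration (100%), four-parameter fit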;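 as to Relative cAMP EC50, hGLP-1R: intracellular cAMP rise after 30 min at 37 °C read by HTRF, normalized between buffer only (0%) and maximal control ligand (100%), four-parameter variable-slope fit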;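 as to Relative cAMP EC50, hGcgR: intracellular cAMP rise after 30 min at 37 °C, read by HTRF against a cAMP standard curve, scaled from buffer only (0%) to maximal control ligand response (100%)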
hGLP-1R [4] = target: T2, hGLP-1R; test: as above; type: cell-based; conditions: read-out: Relative cAMP EC50, hGLP-1R
hGcgR = hGcgR (Homo sapiens, UniProt P47871); test: as above; type: cell-based; conditions: read-out: Relative cAMP EC50, hGcgR;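 also: intracellular cAMP rise after 30 min at 37 °C, read by HTRF against a cAMP standard curve, scaled from buffer only (0%) to maximal control ligand response (100%)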
hGcgR, sequence (P47871 26-477): as above

in vivo [5] = test: in vivo; set-up: species or system cynomolgus monkeys; conditions: both sexes, cynomolgus monkey, iv, 10 nmol/kg
Method: (§1) A study is designed to evaluate the oral bioavailability of Example polypeptides in cynomolgus monkeys. […] Standards and controls are prepared in cynomolgus monkey plasma, and any dilutions required to bring samples into the quantitative range are also performed in control cynomolgus monkey plasma. To control assay variability, an internal standard (IS) is added to all the standards and samples. The Examples and IS are extracted from 100% monkey plasma (50 μL) by protein precipitation using isopropyl alcohol and methanol (50:50 v/v). The samples are then centrifuged (3000 rpm for 10 minutes) and the supernatant is transferred to a Siricco Protein Precipitation Plate. The samples are loaded on a Sep-Pak tC18 SPE microelution plate that is conditioned with 2% formic acid in acetonitrile and water. The compounds are then washed with 2% formic acid in water and eluted using 2% formic acid in acetonitrile into a plate containing 5× Invitrosol and 1% formic acid in water prior to injecting an aliquot (10 μL) on to Xselect CSH C18, 3.5 μm, 2.1×20 mm for LC/MS analysis.
Blood samples are collected over 504 hours. Plasma is harvested from blood samples by centrifugation and stored frozen (−70° C.) until analysis. Plasma concentrations of the molecules are detected using the bioanalytical method described above.

in vivo [6] = test: in vivo; set-up: species or system cynomolgus monkeys; conditions: both sexes, cynomolgus monkey, po; for bioavailability: 10 mg; for AUC(0-inf) / CL/F / Cmax / Tmax / half-life: 300 mg
Method: as §1
[…] Blood samples are collected up to 504 hours post-dose. Plasma is harvested from blood samples by centrifugation and stored frozen (−70° C.) until analysis. Plasma concentrations of the molecules are detected using the bioanalytical method described above.

[7] = Body weight in diet-induced obese C57BL/6 mice; type: in vivo; conditions: 10 nmol/kg SC QD, percent of starting weight, DIO mice, mean ± SEM n=5
Outline: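 Male C57BL/6 DIO mice (41-50 g, 5 per group, randomized by weight) on calorie-rich diet received subcutaneous doses 30-90 min before dark onset, QD or Q3D for 9-16 days. Body weight measured daily, expressed as percent of starting weight, mean±SEM.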

human GLP1-R = human GLP1-R (Homo sapiens, UniProt P43220); test: GLP1-R internalization assay in HEK293 cells; type: cell-based; conditions: for EC50: HEK293 cells expressing SNAP-GLP-1R, read-out: GLP1R Internalization EC50; for Internalization % TOP: normalized to maximum concentration of GLP-1 (100%)
human GLP1-R, sequence (P43220 24-463): as the sequence (P43220 24-463) above

[8] = Pepsin stability assay in simulated gastric fluid; type: in vitro ADME; conditions: pH 1.2, % Intact (SD)
Method: A pepsin stability assay is utilized to determine the relative stability of Example polypeptides in a simulated gastric proteolytic environment. […] The relative amount of intact peptide is quantified by mass spectrometry (MS). […] The examples were dissolved in 50 mM Tris buffer pH 8.0 at a concentration of 10 mg/mL as a stock solution. Pepsin A was reconstituted in SGF at 10 mg/mL. […] The example peptide and pepsin solutions were then incubated at 37° C. in a shaking incubator set at 100 rpm. Samples (25 μL) were withdrawn at different time intervals and quenched with 100 mM ammonium bicarbonate pH 9 (50 μL) to stop proteolytic activity. All samples were centrifuged, and the supernatants were analyzed by LC/MS to determine the remaining intact peptide.

[9] = test system: Intestinal organoid from Göttingen minipig jejunum tissue, 2D monolayer; test: Cell based in vitro permeability (Papp) assay; type: in vitro ADME
Outline: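 2D monolayers derived from Göttingen minipig jejunal organoids on transwell inserts. Basal samples collected at 20 min in the presence of C10. Peptide in apical and basal compartments quantified by LC/MS to give Papp.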

[10] = in the presence of 0.1% casein (no HSA), geometric mean

| Substance | EC50 (hGIPR [1]) | EC50 (hGLP-1R [2]) | EC50 (human GcgR) | EC50 (hGIPR [3]) | EC50 (hGLP-1R [4]) | EC50 (hGcgR) | AUC(0-inf) (in vivo [5]) | clearance (in vivo [5]) | half-life (in vivo [5]) | bioavailability (in vivo [6]) | AUC(0-inf) (in vivo [6]) | CL/F (in vivo [6]) | Cmax (in vivo [6]) | Tmax (in vivo [6]) | half-life (in vivo [6]) | Body weight (%) ([7]; 14 days) | EC50 (human GLP1-R) | remaining at 0.25 h, 0.4 mg/mL [8] | Internalization % TOP (human GLP1-R) | other results |
| --- | --- | --- | --- | --- | --- | --- | --- | --- | --- | --- | --- | --- | --- | --- | --- | --- | --- | --- | --- | --- |
| H-Y[Aib]QGT[αMePhe(2-F)]TSD[4Pal][αMeS]I[αMeL]LD[Orn]K([AEEA-γGlu-C18 diacid])AQ[αMe4Pal]EFI[dE][αMeY]LIEGGPSSGAPPPSGGGE-NH2 [Example 741] | 0.817 nM | 32.4 nM | 200 nM | 0.00612 nM | 0.239 nM | 2.01 nM | 9.55 ± 2.28 µM·h | 0.00109 L/h/kg | 32.1 ± 4.22 h | 0.8% | 4.2 µM·h | 0.137 L/h/kg | 0.0958 µM | 3.75 h | 58.1 h | 59.42 ± 2.94 % | 50.1 nM | 111% |  | remaining at 0.5 h, 0.4 mg/mL [8]: 104%; remaining at 1 h, 0.4 mg/mL [8]: 105% |
| H-Y[Aib]QGT[αMePhe(2-F)]TSD[4Pal][αMeS]I[αMeL]LD[Orn]K([AEEA-γGlu-C18 diacid])AQ[αMe4Pal]EFI[dE][αMeY]LVEGGPSSGAPPPSGS-NH2 [Example 694] | 0.787 nM | 25 nM | 206 nM | 0.00781 nM | 0.253 nM | 2.04 nM | 10.7 ± 2.75 µM·h | 0.00098 L/h/kg | 50.7 ± 16.8 h | 2.4% | 14.8 µM·h | 0.0524 L/h/kg | 0.353 µM | 3.5 h | 50.7 h | 69.77 ± 2.96 % | 21.8 nM | 101% | 97.3% | Body weight (%) ([7]; 7 days): 71.92 ± 1.28 %; Relative Papp (Compared to internal standard) [9]: 0.60 |
| H-Y[Aib]QGTFTSD[4Pal]SQ[αMeL]LDKK([γGlu-γGlu-C18 diacid])AQ[αMe4Pal]AFIEYLIAGGPSSGAPPPSGE-NH2 [Example 883] | 9.41 nM | 120 nM | 578 nM |  |  |  | 8.69 ± 0.623 µM·h | 0.00115 L/h/kg | 62.8 ± 53.9 h | 0.3% | 1.28 µM·h | 0.666 L/h/kg | 0.0436 µM | 2 h | 29 h |  | 23.9 nM |  | 77.1% | EC50 (hGIPR [3]; [10]): 0.0779 nM; EC50 (hGLP-1R [4]; [10]): 1.05 nM; EC50 (hGcgR; [10]): 4.02 nM |
